This assay concerns the target PD-1/PD-L1 (Homo sapiens (Human), UniProt Q9NZQ7). In words: PD-1/PD-L1 binding assay (HTRF). The protocol:
The assays were conducted in a standard black 384-well polystyrene plate with a final volume of 20 μL. Inhibitors were first serially diluted in DMSO and then added to the plate wells before the addition of other reaction components. The final concentration of DMSO in the assay was 1%. The assays were carried out at 25° C. in the PBS buffer (pH 7.4) with 0.05% Tween-20 and 0.1% BSA. Recombinant human PD-L1 protein (19-238) with a His-tag at the C-terminus was purchased from AcroBiosystems (PD1-H5229). Recombinant human PD-1 protein (25-167) with Fc tag at the C-terminus was also purchased from AcroBiosystems (PD1-H5257). PD-L1 and PD-1 proteins were diluted in the assay buffer and 10 μL was added to the plate well. Plates were centrifuged and proteins were preincubated with inhibitors for 40 minutes. The incubation was followed by the addition of 10 μL of HTRF detection buffer supplemented with Europium cryptate-labeled anti-human IgG (PerkinElmer-AD0212) specific for Fc and anti-His antibody conjugated to SureLight®-Allophycocyanin (APC, PerkinElmer-AD0059H). After centrifugation, the plate was incubated at 25° C. for 60 min. before reading on a PHERAstar FS plate reader (665 nm/620 nm ratio). Final concentrations in the assay were […], 10 nM PD-L1, 1 nM europium anti-human IgG and 20 nM anti-His-Allophycocyanin. IC50 determination was performed by fitting the curve of percent control activity versus the log of the inhibitor concentration using the GraphPad Prism 5.0 software.
A general note: In TR-FRET formats the signal depends on donor and acceptor labels being close together.

Molecules are shown by their SMILES.

Chain of PD-1/PD-L1 (Q9NZQ7 19-238): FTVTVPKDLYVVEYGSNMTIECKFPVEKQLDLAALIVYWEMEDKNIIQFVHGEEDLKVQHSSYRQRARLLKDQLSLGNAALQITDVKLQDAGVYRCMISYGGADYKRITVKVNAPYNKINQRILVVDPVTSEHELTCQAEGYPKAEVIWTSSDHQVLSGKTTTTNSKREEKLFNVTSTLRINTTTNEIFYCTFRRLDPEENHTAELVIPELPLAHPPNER

Consider `Cc1c(-c2nc3c(o2)CN(C(=O)CN2CCC(C(=O)O)CC2)C3)cccc1-c1cccc(NC(=O)c2nc3c(n2C)CCN(C)C3)c1Cl` [Compound 167, 1-(2-(2-(2′-chloro-3′-(1,5-dimethyl-4,5,6,7-tetrahydro-1H-imidazo[4,5-c]pyridine-2-carboxamido)-2-methyl-[1,1′-biphenyl]-3-yl)-4,6-dihydro-5H-pyrrolo[3,4-d]oxazol-5-yl)-2-oxoethyl)piperidine-4-carboxylic acid], for which the IC50 (commonly the point on the concentration scale where inhibition reaches its midpoint) is no more than 10 nM. `Cc1c(NC(=O)c2nc3c(n2C)CCN(C[C@H](C)O)C3)cccc1-c1cccc(NC(=O)c2nc3c(n2C)CCN(C2CCN(S(C)(=O)=O)CC2)C3)c1Cl` [Example 43, (S)—N-(2′-chloro-2-methyl-3′-(1-methyl-5-(1-(methylsulfonyl)piperidin-4-yl)-4,5,6,7-tetrahydro-1H-imidazo[4,5-c]pyridine-2-carboxamido)biphenyl-3-yl)-5-(2-hydroxypropyl)-1-methyl-4,5,6,7-tetrahydro-1H-imidazo[4,5-c]pyridine-2-carboxamide]: the IC50 was no more than 10 nM. For `CCN1CCc2c(nc(C(=O)Nc3cccc(-c4cccc(NC(=O)c5nc6c(n5C)CCN(C[C@H]5CC[C@H](C(=O)O)CC5)C6)c4Cl)c3Cl)n2C)C1` [Example 62, trans-4-((2-(2,2′-dichloro-3′-(5-ethyl-1-methyl-4,5,6,7-tetrahydro-1H-imidazo[4,5-c]pyridine-2-carboxamido)biphenyl-3-ylcarbamoyl)-1-methyl-6,7-dihydro-1H-imidazo[4,5-c]pyridin-5(4H)-yl)methyl)cyclohexane-1-carboxylic acid], the IC50 was no more than 10 nM. Under `Cc1c(NC(=O)c2nc3c(n2C)CCN(C[C@H](C)O)C3)cccc1-c1cccc(NC(=O)c2nc3c(n2C)CCN(C2CCOCC2)C3)c1Cl` [Example 47, (S)—N-(2′-chloro-2-methyl-3′-(1-methyl-5-(tetrahydro-2H-pyran-4-yl)-4,5,6,7-tetrahydro-1H-imidazo[4,5-c]pyridine-2-carboxamido)biphenyl-3-yl)-5-(2-hydroxypropyl)-1-methyl-4,5,6,7-tetrahydro-1H-imidazo[4,5-c]pyridine-2-carboxamide] stands no more than 10 nM. Turning to `Cc1c(-c2nc3c(s2)CN(C(=O)CN(C)C(C)C)C3)cccc1-c1cccc(NC(=O)c2nc3c(n2C)CCN(C[C@H]2CC[C@H](C(=O)O)CC2)C3)c1Cl` [Compound 158, trans-4-((2-(2-chloro-3′-(5-(2-(isopropyl(methyl)amino)acetyl)-5,6-dihydro-4H-pyrrolo[3,4-d]thiazol-2-yl)-2′-methylbiphenyl-3-ylcarbamoyl)-1-methyl-6,7-dihydro-1H-imidazo[4,5-c]pyridin-5(4H)-yl)methyl)cyclohexane-1-carboxylic acid], the IC50 was no more than 10 nM.

`Cc1c(NC(=O)c2nc3c(n2C)CCN(C)C3)cccc1-c1cccc(NC(=O)c2nc3c(n2C)CCN(CCc2ccc(C(=O)O)cc2)C3)c1Cl` [Example 117, 4-(2-(2-((2-chloro-3′-(1,5-dimethyl-4,5,6,7-tetrahydro-1H-imidazo[4,5-c]pyridine-2-carboxamido)-2′-methyl-[1,1′-biphenyl]-3-yl)carbamoyl)-1-methyl-1,4,6,7-tetrahydro-5H-imidazo[4,5-c]pyridin-5-yl)ethyl)benzoic acid] showed an IC50 of no more than 10 nM.

The molecule `CN1CCc2c(nc(C(=O)Nc3cccc(-c4cccc(NC(=O)c5nc6c(n5C)CCN(CC5CCC(C)(C(=O)O)CC5)C6)c4Cl)c3Cl)n2C)C1` (single isomer, unassigned) [Compound 82-1, 4-((2-((2,2′-dichloro-3′-(1,5-dimethyl-4,5,6,7-tetrahydro-1H-imidazo[4,5-c]pyridine-2-carboxamido)-[1,1′-biphenyl]-3-yl)carbamoyl)-1-methyl-1,4,6,7-tetrahydro-5H-imidazo[4,5-c]pyridin-5-yl)methyl)-1-methylcyclohexane-1-carboxylic acid] showed an IC50 of no more than 10 nM.

For `Cn1c(C(=O)Nc2cccc(-c3cccc(NC(=O)c4nc5c(n4C)CCN(C4CCOCC4)C5)c3Cl)c2Cl)nc2c1CCN(C[C@H]1CC[C@@H](C(=O)O)CC1)C2` [Example 73, cis-4-((2-((2,2′-dichloro-3′-(1-methyl-5-(tetrahydro-2H-pyran-4-yl)-4,5,6,7-tetrahydro-1H-imidazo[4,5-c]pyridine-2-carboxamido)-[1,1′-biphenyl]-3-yl)carbamoyl)-1-methyl-1,4,6,7-tetrahydro-5H-imidazo[4,5-c]pyridin-5-yl)methyl)cyclohexane-1-carboxylic acid], the IC50 was no more than 10 nM. Molecule `Cn1c(C(=O)Nc2cccc(-c3cccc(NC(=O)c4nc5c(n4C)CCN(C4CCC(O)CC4)C5)c3Cl)c2Cl)nc2c1CCN(C[C@H]1CC[C@@H](C(=O)O)CC1)C2` (stereo partly drawn) [145 (compound 145-1), cis-4-((2-((2,2′-dichloro-3′-(5-(4-hydroxycyclohexyl)-1-methyl-4,5,6,7-tetrahydro-1H-imidazo[4,5-c]pyridine-2-carboxamido)-[1,1′-biphenyl]-3-yl)carbamoyl)-1-methyl-1,4,6,7-tetrahydro-5H-imidazo[4,5-c]pyridin-5-yl)methyl)cyclohexane-1-carboxylic acid] gave an IC50 of no more than 10 nM.

Molecule `C[C@H](O)CN1CCc2c(nc(C(=O)Nc3cccc(-c4cccc(NC(=O)c5nc6c(n5C)CCN(C[C@H]5CC[C@@H](C(=O)O)CC5)C6)c4Cl)c3Cl)n2C)C1` [Example 75, cis-4-((2-((2,2′-dichloro-3′-(5-((S)-2-hydroxypropyl)-1-methyl-4,5,6,7-tetrahydro-1H-imidazo[4,5-c]pyridine-2-carboxamido)-[1,1′-biphenyl]-3-yl)carbamoyl)-1-methyl-1,4,6,7-tetrahydro-5H-imidazo[4,5-c]pyridin-5-yl)methyl)cyclohexane-1-carboxylic acid] showed an IC50 of no more than 10 nM. For the molecule `Cn1c(C(=O)Nc2cccc(-c3cccc(NC(=O)c4nc5c(n4C)CCN(C[C@H]4CC[C@H](C(=O)O)CC4)C5)c3C#N)c2Cl)nc2c1CCN(C1CCOCC1)C2` [Compound 157, trans-4-((2-((2′-chloro-2-cyano-3′-(1-methyl-5-(tetrahydro-2H-pyran-4-yl)-4,5,6,7-tetrahydro-1H-imidazo[4,5-c]pyridine-2-carboxamido)-[1,1′-biphenyl]-3-yl)carbamoyl)-1-methyl-1,4,6,7-tetrahydro-5H-imidazo[4,5-c]pyridin-5-yl)methyl)cyclohexane-1-carboxylic acid], the IC50 is no more than 10 nM. As to `CCC1(C(=O)O)CCC(N2CCc3c(nc(C(=O)Nc4cccc(-c5cccc(NC(=O)c6nc7c(n6C)CCN(C)C7)c5Cl)c4C)n3C)C2)CC1` (stereo not shown) [Example 104, 4-(2-((2′-chloro-3′-(1,5-dimethyl-4,5,6,7-tetrahydro-1H-imidazo[4,5-c]pyridine-2-carboxamido)-2-methyl-[1,1′-biphenyl]-3-yl)carbamoyl)-1-methyl-1,4,6,7-tetrahydro-5H-imidazo[4,5-c]pyridin-5-yl)-1-ethylcyclohexane-1-carboxylic acid], the IC50 is no more than 10 nM. `Cc1c(NC(=O)c2nc3c(n2C)CCN(C2CCOCC2)C3)cccc1-c1cccc(NC(=O)c2nc3c(n2C)CCN(CCc2ccc(C(=O)O)cc2)C3)c1Cl` [Example 124, 4-(2-(2-((2-chloro-2′-methyl-3′-(1-methyl-5-(tetrahydro-2H-pyran-4-yl)-4,5,6,7-tetrahydro-1H-imidazo[4,5-c]pyridine-2-carboxamido)-[1,1′-biphenyl]-3-yl)carbamoyl)-1-methyl-1,4,6,7-tetrahydro-5H-imidazo[4,5-c]pyridin-5-yl)ethyl)benzoic acid] showed an IC50 of no more than 10 nM. On to `Cc1c(NC(=O)c2nc3c(n2C)CCN(C[C@H](C)O)C3)cccc1-c1cccc(NC(=O)c2nc3c(n2C)CCN(CC2CC2)C3)c1Cl` [Example 46, (S)—N-(2-chloro-3′-(5-(2-hydroxypropyl)-1-methyl-4,5,6,7-tetrahydro-1H-imidazo[4,5-c]pyridine-2-carboxamido)-2′-methylbiphenyl-3-yl)-5-(cyclopropylmethyl)-1-methyl-4,5,6,7-tetrahydro-1H-imidazo[4,5-c]pyridine-2-carboxamide], for which the IC50 is no more than 10 nM.

Turning to `Cc1c(NC(=O)c2nc3c(n2C)CCN(CC2CCOCC2)C3)cccc1-c1cccc(NC(=O)c2nc3c(n2C)CCN(C)C3)c1Cl` [Example 30, N-(2-chloro-2′-methyl-3′-(1-methyl-5-((tetrahydro-2H-pyran-4-yl)methyl)-4,5,6,7-tetrahydro-1H-imidazo[4,5-c]pyridine-2-carboxamido)biphenyl-3-yl)-1,5-dimethyl-4,5,6,7-tetrahydro-1H-imidazo[4,5-c]pyridine-2-carboxamide], the IC50 is no more than 10 nM. For `Cn1c(C(=O)Nc2cccc(-c3cccc(NC(=O)c4nc5c(n4C)CCN(C[C@H]4CC[C@@H](C(=O)O)CC4)C5)c3Cl)c2Cl)nc2c1CCN(CCO)C2` [Example 74, cis-4-((2-((2,2′-dichloro-3′-(5-(2-hydroxyethyl)-1-methyl-4,5,6,7-tetrahydro-1H-imidazo[4,5-c]pyridine-2-carboxamido)-[1,1′-biphenyl]-3-yl)carbamoyl)-1-methyl-1,4,6,7-tetrahydro-5H-imidazo[4,5-c]pyridin-5-yl)methyl)cyclohexane-1-carboxylic acid], the IC50 is no more than 10 nM.

These data come from patent US10806785B2, “Immunomodulator compounds and methods of use” (Incyte Corporation, priority 2016, dated 2020).
